Consider 3 compounds from patent publication US6391914B1, “Optically active aminopentane derivatives” (Fujimoto Brothers Co., Ltd., priority 1998, dated 2002).

Molecules are shown by their SMILES. Counter-ions that a name gives are not always drawn. Some results are limits rather than exact numbers.

The target in one series is T1, 5-HT2 receptor (Rattus norvegicus, UniProt P14842).
T1 construct: from tissue; host or cells: rat brain membranes
The experiment in a line: Receptor affinity, 3H-ketanserin binding. The arrangement: species or system rats. As for the experimental part:
(§1) The receptor solution was prepared as follows. After the rats were decapitated, brain was immediately isolated and weighed. Thereafter, brain samples were homogenized in ten times volumes of ice-cold 0.35 mol/L sucrose (pH 7.4) using glass homogenizer with Teflon pestle, which was revolted by motors. The homogenate was centrifuged at 4° C. at 900×g for 10 min and the supernatant was, furthermore, recentrifuged at 4° C. at 22,000×g for 20 min. The precipitate was suspended with addition of 5 mmol/L phosphate buffer solution (pH 7.4). After the suspension was incubated at 37° C. for 30 min, the suspension was recentrifuged at 4° C. at 20,000×g for 20 min. […]
(§2) ^3H-prazocin was used as a ligand. […] In addition, the nonspecific binding was evaluated with binding value of ^3H-prazocin in the presence of 0.1 μmol/L prazocin. […] After 10 ml of scintillation cocktail was put in it, the radioactivity was measured. Affinity of the compounds of the invention to α1 receptor was evaluated from the inhibition rate of binding between α1 receptor and the ligand.
(§3) Affinities of the compounds of the invention to receptors of α2, D1, D2, 5-HT1 and 5-HT2 were respectively determined in the same manner, while used 0.7 nmol/L ^3H-rauwolscine, 1.4 nmol/L ^3H-SCH-23390, 2.0 nmol/L spiperone, 2 nmol/L ^3H-5-HT and 0.5 nmol/L ^3H-ketanserin as each ligands. […]

The target of the next series is T2, D1 receptor (Rattus norvegicus, UniProt P18901).
T2 construct: from tissue; host or cells: rat brain membranes
In words: Receptor affinity, 3H-SCH-23390 binding. Further details: species or system rats. As for the experimental part:
as §1, §2, §3

For another series, the target named is 5-HT1 receptor. In words: Receptor affinity, 3H-5-HT binding. The note with it: 2 nmol/L 3H-5-HT; read-out: Affinity to 5-HT1 receptor: concentration showing 50% inhibition between ligand and receptor. Further details: species or system rats. On the procedure: as §1, §2, §3
The target of the next series is α1 receptor. In words: Receptor affinity, 3H-prazocin binding. The arrangement: species or system rats. The following applies: 0.25 nmol/L 3H-prazocin; read-out: Affinity to α1 receptor: concentration showing 50% inhibition between ligand and receptor. As for the experimental part: The receptor solution was prepared as follows. After the rats were decapitated, brain was immediately isolated and weighed. Thereafter, brain samples were homogenized in ten times volumes of ice-cold 0.35 mol/L sucrose (pH 7.4) using glass homogenizer with Teflon pestle, which was revolted by motors. The homogenate was centrifuged at 4° C. at 900×g for 10 min and the supernatant was, furthermore, recentrifuged at 4° C. at 22,000×g for 20 min. The precipitate was suspended with addition of 5 mmol/L phosphate buffer solution (pH 7.4). After the suspension was incubated at 37° C. for 30 min, the suspension was recentrifuged at 4° C. at 20,000×g for 20 min. The precipitate was resuspended in 10 ml of 5 mmol/L phosphate buffer solution (pH 8.0) to be receptor solution.
^3H-prazocin was used as a ligand. 0.25 nmol/L of ^3H-prazocin, the compounds of the invention and the receptor solution, which were respectively prepared in 5 mmol/L phosphate buffer (pH 8), were put in tube and the mixture was incubated at 25° C. for 90 min. In addition, the nonspecific binding was evaluated with binding value of ^3H-prazocin in the presence of 0.1 μmol/L prazocin. […] After 10 ml of scintillation cocktail was put in it, the radioactivity was measured. Affinity of the compounds of the invention to α1 receptor was evaluated from the inhibition rate of binding between α1 receptor and the ligand.

A further series addresses T3, D2 receptor (Rattus norvegicus, UniProt P61169).
T3 construct: from tissue; host or cells: rat brain membranes
In words: Receptor affinity, spiperone binding. The arrangement: species or system rats. As for the experimental part: as §1, §2, §3

In the next series the test system is mice. The experiment in a line: Toxicity test in mice in the single administration. It counts as in vivo. The note with it: 100 mg/kg p.o., observed two weeks.

T3 sequence (P61169 whole entry): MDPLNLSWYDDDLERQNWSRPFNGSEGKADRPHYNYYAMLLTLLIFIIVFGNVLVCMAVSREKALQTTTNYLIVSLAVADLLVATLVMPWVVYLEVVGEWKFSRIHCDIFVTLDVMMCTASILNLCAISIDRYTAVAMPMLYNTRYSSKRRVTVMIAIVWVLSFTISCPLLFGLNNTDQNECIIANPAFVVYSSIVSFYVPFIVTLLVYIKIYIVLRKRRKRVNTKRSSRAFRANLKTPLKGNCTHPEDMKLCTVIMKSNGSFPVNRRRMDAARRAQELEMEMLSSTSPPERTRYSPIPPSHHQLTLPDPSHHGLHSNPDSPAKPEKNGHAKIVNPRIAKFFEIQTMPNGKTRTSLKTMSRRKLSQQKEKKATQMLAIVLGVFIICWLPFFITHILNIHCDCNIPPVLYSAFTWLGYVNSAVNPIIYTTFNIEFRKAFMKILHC
T2 sequence (P18901 whole entry): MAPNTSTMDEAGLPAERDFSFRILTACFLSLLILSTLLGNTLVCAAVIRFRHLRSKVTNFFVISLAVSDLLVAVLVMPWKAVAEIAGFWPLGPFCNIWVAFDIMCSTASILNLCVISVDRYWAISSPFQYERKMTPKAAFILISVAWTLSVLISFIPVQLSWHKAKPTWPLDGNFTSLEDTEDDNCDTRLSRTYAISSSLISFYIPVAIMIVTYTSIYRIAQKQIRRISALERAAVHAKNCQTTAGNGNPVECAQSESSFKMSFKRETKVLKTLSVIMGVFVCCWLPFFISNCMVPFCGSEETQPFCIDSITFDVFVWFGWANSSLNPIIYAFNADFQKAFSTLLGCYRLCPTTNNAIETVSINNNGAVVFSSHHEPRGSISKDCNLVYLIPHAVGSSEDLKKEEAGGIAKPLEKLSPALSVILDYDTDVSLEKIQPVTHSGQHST
T1 sequence (P14842 whole entry): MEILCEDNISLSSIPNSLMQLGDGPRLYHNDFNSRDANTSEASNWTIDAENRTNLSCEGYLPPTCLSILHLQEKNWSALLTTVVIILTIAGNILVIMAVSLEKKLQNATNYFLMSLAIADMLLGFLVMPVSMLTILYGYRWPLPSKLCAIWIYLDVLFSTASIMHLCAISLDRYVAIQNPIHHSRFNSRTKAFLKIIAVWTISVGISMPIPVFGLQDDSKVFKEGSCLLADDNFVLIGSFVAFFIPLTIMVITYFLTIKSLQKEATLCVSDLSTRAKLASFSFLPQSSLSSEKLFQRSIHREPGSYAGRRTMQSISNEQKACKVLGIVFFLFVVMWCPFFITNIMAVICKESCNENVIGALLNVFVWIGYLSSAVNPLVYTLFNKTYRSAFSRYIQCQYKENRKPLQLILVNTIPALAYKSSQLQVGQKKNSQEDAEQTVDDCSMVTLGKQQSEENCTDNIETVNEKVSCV

The compound `CCCNC(CCC)Cc1cc2ccccc2o1.Cl` (single isomer, unassigned; (+)) [(+)-Isomer, (+)-1-(benzofuran-2-yl)-2-propylaminopentane hydrochloride] showed an IC50 at 5-HT2 receptor of over 10 µM.

With `CCCNC(CCC)Cc1cc2ccccc2o1.Cl` (racemic) [Racemic compound, (±)-1-(benzofuran-2-yl)-2-propylaminopentane hydrochloride], the IC50 was over 10 µM at D1 receptor; over 10 µM on 5-HT1 receptor; 20 µM on 5-HT2 receptor; over 10 µM at α1 receptor; over 10 µM at D2 receptor.

In the case of `CCCNC(CCC)Cc1cc2ccccc2o1` (single isomer, unassigned; (-)) [The compound of the invention, (−)-1-(benzofuran-2-yl)-2-propylaminopentane hydrochloride], the IC50 at D1 receptor, at 5-HT1 receptor, at α1 receptor and on D2 receptor was over 10 µM throughout. The “Survival of mice after single administration” value in the series on mice is given as “every three numbers of mice survived”.
